According to ChEMBL document CHEMBL5236614, “Discovery of Potent and Selective Dual Leucine Zipper Kinase/Leucine Zipper-Bearing Kinase Inhibitors with Neuroprotective Properties in In Vitro and In Vivo Models of Amyotrophic Lateral Sclerosis” (J Med Chem, 2022):

Assay: Microsomal stability in human liver microsomes assessed as intrinsic clearance
Format: ADME, Microsome
Conditions: read-out: CLH

CLint scaled [mL/min/kg]	SMILES
15.9	Nc1ncc(-c2cc(C3CC3)cc(N3C[C@@H]4C[C@H]3CO4)n2)nc1OC(F)F
15.8	Nc1ncc(-c2cc(C3CC3)nc(N3C[C@@H]4C[C@H]3CO4)c2)nc1OC(F)F
